Source: publication PMC9851200, “Multiparameter phenotypic screening for endogenous TFEB and TFE3 translocation identifies novel chemical series modulating lysosome function” (Autophagy, 2022)

What was measured:
Type in all cases: binding
[1] = biological target: T1, kinases (KINOMEscan panel) (Homo sapiens, UniProt P57078); conditions: RIPK4; NEW KINOMEscan
T1 sequence (P57078 1-832): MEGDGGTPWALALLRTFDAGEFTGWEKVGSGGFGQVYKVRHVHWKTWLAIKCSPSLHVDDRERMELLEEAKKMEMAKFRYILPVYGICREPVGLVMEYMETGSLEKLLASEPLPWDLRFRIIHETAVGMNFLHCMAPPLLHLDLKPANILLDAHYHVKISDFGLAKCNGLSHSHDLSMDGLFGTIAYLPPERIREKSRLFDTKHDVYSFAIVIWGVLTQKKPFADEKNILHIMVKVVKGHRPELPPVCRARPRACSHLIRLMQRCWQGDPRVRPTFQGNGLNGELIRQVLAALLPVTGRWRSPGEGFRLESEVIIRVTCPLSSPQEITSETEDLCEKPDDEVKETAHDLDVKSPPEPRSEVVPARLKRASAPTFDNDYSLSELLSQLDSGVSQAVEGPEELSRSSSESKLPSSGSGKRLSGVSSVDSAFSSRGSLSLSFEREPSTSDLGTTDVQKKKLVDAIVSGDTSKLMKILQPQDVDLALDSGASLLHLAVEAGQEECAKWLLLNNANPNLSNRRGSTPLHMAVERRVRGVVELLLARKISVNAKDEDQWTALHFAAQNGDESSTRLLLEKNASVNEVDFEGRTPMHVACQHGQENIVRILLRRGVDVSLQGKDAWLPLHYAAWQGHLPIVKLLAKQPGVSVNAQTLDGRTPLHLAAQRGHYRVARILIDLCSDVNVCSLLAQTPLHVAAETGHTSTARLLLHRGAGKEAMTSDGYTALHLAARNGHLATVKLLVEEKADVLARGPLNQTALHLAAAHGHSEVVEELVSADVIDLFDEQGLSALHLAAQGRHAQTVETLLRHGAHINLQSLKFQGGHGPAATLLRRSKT

[2] = biological target: kinases (KINOMEscan panel) (Homo sapiens, UniProt Q9UM73); conditions: kinase ALK; NEW KINOMEscan
[3] = biological target: kinases (KINOMEscan panel) (Homo sapiens, UniProt O94921); conditions: NEW KINOMEscan
[4] = biological target: T2, kinases (KINOMEscan panel) (Homo sapiens, UniProt Q8IWQ3); conditions: kinase BRSK2; NEW KINOMEscan
T2 sequence (Q8IWQ3 1-736): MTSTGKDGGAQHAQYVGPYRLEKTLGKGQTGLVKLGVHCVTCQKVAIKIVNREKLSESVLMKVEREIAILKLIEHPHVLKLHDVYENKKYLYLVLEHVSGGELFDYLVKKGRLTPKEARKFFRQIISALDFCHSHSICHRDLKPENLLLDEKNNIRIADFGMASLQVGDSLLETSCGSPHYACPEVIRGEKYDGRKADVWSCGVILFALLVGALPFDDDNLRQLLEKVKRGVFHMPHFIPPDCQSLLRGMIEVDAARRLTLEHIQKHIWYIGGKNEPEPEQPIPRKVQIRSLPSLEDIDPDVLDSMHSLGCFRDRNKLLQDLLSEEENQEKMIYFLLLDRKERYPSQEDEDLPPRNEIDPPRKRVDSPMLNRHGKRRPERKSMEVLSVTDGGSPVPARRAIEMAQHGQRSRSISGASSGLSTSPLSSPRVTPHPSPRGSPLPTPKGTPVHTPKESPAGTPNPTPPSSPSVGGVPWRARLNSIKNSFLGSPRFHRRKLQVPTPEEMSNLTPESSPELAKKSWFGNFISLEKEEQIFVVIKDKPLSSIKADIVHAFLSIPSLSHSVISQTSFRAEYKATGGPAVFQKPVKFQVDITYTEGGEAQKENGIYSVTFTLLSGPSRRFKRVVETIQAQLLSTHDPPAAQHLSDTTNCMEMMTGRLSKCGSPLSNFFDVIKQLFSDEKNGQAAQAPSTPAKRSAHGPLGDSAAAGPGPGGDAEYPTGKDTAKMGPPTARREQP

[5] = biological target: kinases (KINOMEscan panel) (Homo sapiens, UniProt Q04912); conditions: MST1R; NEW KINOMEscan
Chain of kinases (KINOMEscan panel) (Homo sapiens, UniProt Q04912) (Q04912 25-1400): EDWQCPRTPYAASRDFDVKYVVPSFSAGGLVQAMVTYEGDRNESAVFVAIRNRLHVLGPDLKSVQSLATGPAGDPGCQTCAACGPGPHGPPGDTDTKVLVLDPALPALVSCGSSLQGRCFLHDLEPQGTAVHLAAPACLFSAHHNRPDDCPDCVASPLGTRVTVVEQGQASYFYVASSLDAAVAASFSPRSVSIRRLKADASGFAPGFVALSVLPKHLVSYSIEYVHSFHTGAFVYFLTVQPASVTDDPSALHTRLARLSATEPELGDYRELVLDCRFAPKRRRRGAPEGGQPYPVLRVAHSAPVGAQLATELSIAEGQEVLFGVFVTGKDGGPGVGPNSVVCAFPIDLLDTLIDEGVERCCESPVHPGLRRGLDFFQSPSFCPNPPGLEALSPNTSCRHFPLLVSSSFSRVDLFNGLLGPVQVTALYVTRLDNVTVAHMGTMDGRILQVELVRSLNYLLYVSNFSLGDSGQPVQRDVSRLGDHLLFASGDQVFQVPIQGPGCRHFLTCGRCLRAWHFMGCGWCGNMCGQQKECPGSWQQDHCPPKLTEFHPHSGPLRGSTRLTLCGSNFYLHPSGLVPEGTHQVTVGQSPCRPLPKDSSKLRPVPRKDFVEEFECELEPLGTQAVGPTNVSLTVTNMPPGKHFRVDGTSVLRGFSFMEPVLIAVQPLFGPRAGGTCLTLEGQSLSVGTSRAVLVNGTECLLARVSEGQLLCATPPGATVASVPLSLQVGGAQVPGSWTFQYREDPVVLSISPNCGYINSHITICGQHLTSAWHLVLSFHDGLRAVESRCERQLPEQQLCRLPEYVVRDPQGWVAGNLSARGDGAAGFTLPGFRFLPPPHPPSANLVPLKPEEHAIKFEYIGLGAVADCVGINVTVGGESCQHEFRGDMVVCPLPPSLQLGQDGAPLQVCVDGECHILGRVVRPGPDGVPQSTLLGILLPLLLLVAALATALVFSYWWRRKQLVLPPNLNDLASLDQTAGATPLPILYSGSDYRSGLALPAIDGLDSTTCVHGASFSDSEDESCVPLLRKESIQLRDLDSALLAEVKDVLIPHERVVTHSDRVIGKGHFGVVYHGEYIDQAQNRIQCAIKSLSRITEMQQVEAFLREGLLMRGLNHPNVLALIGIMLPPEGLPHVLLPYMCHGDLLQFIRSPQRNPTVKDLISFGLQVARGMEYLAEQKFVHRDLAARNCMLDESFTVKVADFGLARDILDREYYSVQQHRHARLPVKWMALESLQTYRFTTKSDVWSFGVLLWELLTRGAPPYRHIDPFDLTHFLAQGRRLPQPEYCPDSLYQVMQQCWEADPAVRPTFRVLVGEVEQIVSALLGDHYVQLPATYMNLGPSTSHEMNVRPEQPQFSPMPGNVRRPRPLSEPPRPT

Chain of kinases (KINOMEscan panel) (Homo sapiens, UniProt Q9UM73) (Q9UM73 19-1620): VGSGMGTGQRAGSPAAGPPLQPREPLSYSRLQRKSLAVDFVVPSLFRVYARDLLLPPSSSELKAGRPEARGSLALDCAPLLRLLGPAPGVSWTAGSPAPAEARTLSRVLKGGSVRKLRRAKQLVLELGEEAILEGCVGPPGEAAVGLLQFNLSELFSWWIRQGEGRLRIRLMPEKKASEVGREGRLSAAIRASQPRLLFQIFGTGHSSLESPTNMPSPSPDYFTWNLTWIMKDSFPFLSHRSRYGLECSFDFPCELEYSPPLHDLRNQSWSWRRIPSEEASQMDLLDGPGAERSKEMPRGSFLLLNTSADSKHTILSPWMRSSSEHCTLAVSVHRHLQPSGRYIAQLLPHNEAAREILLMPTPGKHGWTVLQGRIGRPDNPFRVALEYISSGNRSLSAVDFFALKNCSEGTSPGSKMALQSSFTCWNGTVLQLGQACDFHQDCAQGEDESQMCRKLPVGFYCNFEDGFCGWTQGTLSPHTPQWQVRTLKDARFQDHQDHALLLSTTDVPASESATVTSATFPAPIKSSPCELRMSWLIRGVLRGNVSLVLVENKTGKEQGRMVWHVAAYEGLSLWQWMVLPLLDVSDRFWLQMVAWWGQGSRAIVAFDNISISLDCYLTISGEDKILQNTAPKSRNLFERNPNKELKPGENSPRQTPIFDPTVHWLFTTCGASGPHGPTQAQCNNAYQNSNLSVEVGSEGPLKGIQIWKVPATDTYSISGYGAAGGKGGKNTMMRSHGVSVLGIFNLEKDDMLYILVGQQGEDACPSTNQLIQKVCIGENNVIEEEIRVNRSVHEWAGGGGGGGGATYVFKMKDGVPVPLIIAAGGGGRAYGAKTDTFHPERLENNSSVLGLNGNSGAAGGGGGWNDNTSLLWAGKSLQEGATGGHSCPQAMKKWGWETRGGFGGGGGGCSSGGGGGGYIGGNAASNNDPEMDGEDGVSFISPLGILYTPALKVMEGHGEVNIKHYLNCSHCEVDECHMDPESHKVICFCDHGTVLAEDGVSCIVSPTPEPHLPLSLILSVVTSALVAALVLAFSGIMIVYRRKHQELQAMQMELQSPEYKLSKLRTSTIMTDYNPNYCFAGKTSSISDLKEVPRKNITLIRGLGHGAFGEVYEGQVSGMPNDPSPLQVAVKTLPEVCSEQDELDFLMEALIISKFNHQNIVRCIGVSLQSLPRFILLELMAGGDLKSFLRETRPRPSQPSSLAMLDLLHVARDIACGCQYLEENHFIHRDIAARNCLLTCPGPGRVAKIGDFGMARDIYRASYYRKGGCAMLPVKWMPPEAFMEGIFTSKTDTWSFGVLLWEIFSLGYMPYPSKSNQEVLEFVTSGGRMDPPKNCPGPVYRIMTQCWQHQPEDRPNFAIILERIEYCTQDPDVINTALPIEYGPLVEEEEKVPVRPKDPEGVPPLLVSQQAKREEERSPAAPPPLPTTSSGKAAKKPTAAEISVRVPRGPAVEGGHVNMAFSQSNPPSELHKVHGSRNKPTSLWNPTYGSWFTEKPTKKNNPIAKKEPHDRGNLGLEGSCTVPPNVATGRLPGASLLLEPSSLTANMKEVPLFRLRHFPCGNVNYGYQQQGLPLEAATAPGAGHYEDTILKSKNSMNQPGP
Chain of kinases (KINOMEscan panel) (Homo sapiens, UniProt O94921) (O94921 whole entry): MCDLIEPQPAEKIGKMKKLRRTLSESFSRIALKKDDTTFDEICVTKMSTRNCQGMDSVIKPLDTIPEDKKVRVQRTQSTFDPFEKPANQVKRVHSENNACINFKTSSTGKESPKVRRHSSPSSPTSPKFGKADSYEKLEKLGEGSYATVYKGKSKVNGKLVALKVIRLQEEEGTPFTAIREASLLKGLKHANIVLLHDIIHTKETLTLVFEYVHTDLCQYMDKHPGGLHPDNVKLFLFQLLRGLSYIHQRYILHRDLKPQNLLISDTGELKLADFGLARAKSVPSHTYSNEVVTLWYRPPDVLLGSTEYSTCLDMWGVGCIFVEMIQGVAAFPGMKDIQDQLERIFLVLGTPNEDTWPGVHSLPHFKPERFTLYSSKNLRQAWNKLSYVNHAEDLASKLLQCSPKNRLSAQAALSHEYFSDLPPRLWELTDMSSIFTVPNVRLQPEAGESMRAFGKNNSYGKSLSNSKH

Cc1cccc(-c2nc(Nc3ccc4nn(C)cc4c3)c3ccccc3n2)n1 [NK167]
KINOMEscan RIPK4 [1]: 0 | KINOMEscan ALK [2]: 22 | KINOMEscan CDK14 [3]: 17 | KINOMEscan BRSK2 [4]: 9 | KINOMEscan MST1R [5]: 0

Cc1cccc(-c2nc(N(C)c3ccc4ncsc4c3)c3ccccc3n2)n1 [NK-161]
KINOMEscan RIPK4 [1]: 0 | KINOMEscan ALK [2]: 9 | KINOMEscan CDK14 [3]: 0 | KINOMEscan BRSK2 [4]: 12 | KINOMEscan MST1R [5]: 2
